{"source": "paper PMC9889419", "about": "(Pharmacological Reports, 2022)", "key": {"NIE-115 cells": {"test_system": "NIE-115 cells", "test": "Patch-clamp (sodium currents)", "type": "cell-based", "conditions": "100 µM"}, "rats": {"test_system": "rats", "test": "Rotarod / TOX (neurotoxicity)", "conditions": "for Rotarod TD50: rats"}, "ETA": {"biological_target": "T1, ETA (Homo sapiens, UniProt P25101)", "T1 construct": "purchased Eurofins CEREP", "test": "Radioligand binding", "conditions": "100 μM"}, "CB1": {"biological_target": "T2, CB1 (Homo sapiens, UniProt P21554)", "T2 construct": "purchased Eurofins CEREP", "T2 sequence (P21554 whole entry)": "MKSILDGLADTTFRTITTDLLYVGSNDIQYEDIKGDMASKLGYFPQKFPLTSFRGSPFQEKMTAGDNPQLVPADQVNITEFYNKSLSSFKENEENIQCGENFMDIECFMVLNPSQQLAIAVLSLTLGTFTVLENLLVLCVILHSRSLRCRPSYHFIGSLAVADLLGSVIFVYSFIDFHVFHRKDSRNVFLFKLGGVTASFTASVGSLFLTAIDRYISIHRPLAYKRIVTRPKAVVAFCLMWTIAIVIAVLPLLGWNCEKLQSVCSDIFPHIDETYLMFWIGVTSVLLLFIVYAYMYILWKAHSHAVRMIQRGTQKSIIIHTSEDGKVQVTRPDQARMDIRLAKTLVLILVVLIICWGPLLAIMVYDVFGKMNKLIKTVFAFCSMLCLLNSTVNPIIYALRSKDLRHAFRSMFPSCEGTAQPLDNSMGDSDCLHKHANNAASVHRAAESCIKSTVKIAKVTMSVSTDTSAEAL", "test": "Radioligand binding", "conditions": "100 μM"}, "NTS1 (NT1)": {"biological_target": "T3, NTS1 (NT1) (Homo sapiens, UniProt P30989)", "T3 construct": "purchased Eurofins CEREP", "test": "Radioligand binding", "conditions": "100 μM"}, "BZD (peripheral)": {"biological_target": "T4, BZD (peripheral) (Rattus norvegicus, UniProt P16257)", "T4 construct": "purchased Eurofins CEREP", "T4 sequence (P16257 whole entry)": "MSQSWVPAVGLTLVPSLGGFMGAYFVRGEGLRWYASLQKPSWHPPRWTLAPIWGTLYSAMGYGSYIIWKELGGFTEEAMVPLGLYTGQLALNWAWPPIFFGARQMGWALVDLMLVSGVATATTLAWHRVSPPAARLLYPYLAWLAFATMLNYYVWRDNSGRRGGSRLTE", "test": "Radioligand binding", "conditions": "100 μM"}, "PAC1 (PACAP)": {"biological_target": "T5, PAC1 (PACAP) (Homo sapiens, UniProt P41586)", "T5 construct": "purchased Eurofins CEREP", "test": "Radioligand binding", "conditions": "100 μM"}, "M3": {"biological_target": "T6, M3 (Homo sapiens, UniProt P20309)", "T6 construct": "purchased Eurofins CEREP", "test": "Radioligand binding", "conditions": "100 μM"}, "CXCR2 (IL-8B)": {"biological_target": "T7, CXCR2 (IL-8B) (Homo sapiens, UniProt P25025)", "T7 construct": "purchased Eurofins CEREP", "T7 sequence (P25025 whole entry)": "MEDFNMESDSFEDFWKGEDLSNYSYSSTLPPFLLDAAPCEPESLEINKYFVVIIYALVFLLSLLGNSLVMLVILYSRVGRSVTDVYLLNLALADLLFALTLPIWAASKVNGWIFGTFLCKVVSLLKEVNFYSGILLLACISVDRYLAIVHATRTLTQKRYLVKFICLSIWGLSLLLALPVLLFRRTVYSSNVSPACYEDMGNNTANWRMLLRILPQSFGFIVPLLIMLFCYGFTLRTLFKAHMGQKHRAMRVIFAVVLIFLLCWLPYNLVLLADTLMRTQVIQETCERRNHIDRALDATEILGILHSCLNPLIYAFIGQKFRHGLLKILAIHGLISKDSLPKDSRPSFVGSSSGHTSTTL", "test": "Radioligand binding", "conditions": "100 μM"}, "CCK2 (CCKB)": {"biological_target": "T8, CCK2 (CCKB) (Homo sapiens, UniProt P32239)", "T8 construct": "purchased Eurofins CEREP", "test": "Radioligand binding", "conditions": "100 μM"}, "CCR1": {"biological_target": "T9, CCR1 (Homo sapiens, UniProt P32246)", "T9 construct": "purchased Eurofins CEREP", "test": "Radioligand binding", "conditions": "100 μM"}, "V1a": {"biological_target": "T10, V1a (Homo sapiens, UniProt P37288)", "T10 construct": "purchased Eurofins CEREP", "test": "Radioligand binding", "conditions": "100 μM"}, "δ (DOP)": {"biological_target": "T11, δ (DOP) (Homo sapiens, UniProt P41143)", "T11 construct": "purchased Eurofins CEREP", "test": "Radioligand binding", "conditions": "100 μM"}, "GAL2": {"biological_target": "T12, GAL2 (Homo sapiens, UniProt O43603)", "T12 construct": "purchased Eurofins CEREP", "test": "Radioligand binding", "conditions": "100 μM"}, "[1]": {"test_system": "Salmonella enterica sv. Typhimurium TA 98", "test": "Ames test"}, "mice": {"test_system": "mice", "test": "animal or person", "conditions": "Mus musculus, ip, read-out: MES ED50"}, "hNav1.7 sodium channel": {"biological_target": "T13, hNav1.7 sodium channel (Homo sapiens, UniProt Q15858)", "T13 construct": "host or cells: CHO cells", "T13 sequence (Q15858 whole entry)": "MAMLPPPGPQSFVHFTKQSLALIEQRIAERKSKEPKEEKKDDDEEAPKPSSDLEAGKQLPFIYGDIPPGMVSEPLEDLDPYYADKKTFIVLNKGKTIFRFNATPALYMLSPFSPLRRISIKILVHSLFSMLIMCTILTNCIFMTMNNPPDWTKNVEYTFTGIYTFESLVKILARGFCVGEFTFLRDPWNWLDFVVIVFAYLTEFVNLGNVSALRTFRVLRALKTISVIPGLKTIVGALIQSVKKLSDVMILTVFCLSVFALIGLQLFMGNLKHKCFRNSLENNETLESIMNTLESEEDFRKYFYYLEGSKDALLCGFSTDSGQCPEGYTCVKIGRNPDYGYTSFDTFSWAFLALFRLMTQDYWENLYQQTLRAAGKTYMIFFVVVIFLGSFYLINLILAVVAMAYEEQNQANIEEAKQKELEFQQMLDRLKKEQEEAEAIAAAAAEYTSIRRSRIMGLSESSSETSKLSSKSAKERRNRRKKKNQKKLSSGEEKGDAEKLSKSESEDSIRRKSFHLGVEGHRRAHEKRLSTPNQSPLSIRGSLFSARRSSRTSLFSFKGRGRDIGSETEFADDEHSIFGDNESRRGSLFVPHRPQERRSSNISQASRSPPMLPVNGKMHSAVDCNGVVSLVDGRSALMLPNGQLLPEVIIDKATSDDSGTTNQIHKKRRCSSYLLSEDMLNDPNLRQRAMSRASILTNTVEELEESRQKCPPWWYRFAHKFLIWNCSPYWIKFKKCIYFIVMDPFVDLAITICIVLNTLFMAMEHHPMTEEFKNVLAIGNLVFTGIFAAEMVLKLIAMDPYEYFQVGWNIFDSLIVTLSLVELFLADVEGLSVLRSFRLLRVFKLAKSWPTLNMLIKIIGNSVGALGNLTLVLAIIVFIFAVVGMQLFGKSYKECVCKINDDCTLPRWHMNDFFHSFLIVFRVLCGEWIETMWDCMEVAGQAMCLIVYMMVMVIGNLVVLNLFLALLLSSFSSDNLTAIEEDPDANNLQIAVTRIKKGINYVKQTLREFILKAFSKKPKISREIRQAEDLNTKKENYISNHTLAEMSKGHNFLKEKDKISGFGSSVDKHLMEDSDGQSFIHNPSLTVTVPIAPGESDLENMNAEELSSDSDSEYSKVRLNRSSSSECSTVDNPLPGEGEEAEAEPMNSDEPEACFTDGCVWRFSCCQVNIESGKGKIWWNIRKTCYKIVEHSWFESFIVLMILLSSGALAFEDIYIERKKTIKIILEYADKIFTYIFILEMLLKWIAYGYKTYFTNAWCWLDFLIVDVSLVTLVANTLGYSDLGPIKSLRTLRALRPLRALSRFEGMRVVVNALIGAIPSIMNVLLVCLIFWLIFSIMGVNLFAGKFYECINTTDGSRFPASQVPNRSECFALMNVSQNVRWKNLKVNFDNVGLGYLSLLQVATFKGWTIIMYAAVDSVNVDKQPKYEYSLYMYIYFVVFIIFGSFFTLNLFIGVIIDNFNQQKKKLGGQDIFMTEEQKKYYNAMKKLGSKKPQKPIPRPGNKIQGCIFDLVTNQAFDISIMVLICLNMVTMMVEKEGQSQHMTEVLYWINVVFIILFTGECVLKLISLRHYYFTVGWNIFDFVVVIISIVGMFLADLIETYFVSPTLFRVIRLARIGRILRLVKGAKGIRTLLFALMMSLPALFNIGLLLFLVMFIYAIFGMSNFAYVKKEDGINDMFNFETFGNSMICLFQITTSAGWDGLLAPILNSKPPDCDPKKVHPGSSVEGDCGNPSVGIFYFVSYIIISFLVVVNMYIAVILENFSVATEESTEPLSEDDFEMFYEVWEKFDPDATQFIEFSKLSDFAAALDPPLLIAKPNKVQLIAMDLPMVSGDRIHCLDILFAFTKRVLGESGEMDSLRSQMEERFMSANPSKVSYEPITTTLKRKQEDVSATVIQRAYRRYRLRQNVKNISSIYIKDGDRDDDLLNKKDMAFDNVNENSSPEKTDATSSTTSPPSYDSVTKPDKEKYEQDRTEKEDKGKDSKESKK", "test": "Nav channel electrophysiology (IonWorks Quattro)", "type": "cell-based"}, "hNav1.6 sodium channel": {"biological_target": "T14, hNav1.6 sodium channel (Homo sapiens, UniProt Q9UQD0)", "T14 construct": "host or cells: CHO cells", "T14 sequence (Q9UQD0 whole entry)": "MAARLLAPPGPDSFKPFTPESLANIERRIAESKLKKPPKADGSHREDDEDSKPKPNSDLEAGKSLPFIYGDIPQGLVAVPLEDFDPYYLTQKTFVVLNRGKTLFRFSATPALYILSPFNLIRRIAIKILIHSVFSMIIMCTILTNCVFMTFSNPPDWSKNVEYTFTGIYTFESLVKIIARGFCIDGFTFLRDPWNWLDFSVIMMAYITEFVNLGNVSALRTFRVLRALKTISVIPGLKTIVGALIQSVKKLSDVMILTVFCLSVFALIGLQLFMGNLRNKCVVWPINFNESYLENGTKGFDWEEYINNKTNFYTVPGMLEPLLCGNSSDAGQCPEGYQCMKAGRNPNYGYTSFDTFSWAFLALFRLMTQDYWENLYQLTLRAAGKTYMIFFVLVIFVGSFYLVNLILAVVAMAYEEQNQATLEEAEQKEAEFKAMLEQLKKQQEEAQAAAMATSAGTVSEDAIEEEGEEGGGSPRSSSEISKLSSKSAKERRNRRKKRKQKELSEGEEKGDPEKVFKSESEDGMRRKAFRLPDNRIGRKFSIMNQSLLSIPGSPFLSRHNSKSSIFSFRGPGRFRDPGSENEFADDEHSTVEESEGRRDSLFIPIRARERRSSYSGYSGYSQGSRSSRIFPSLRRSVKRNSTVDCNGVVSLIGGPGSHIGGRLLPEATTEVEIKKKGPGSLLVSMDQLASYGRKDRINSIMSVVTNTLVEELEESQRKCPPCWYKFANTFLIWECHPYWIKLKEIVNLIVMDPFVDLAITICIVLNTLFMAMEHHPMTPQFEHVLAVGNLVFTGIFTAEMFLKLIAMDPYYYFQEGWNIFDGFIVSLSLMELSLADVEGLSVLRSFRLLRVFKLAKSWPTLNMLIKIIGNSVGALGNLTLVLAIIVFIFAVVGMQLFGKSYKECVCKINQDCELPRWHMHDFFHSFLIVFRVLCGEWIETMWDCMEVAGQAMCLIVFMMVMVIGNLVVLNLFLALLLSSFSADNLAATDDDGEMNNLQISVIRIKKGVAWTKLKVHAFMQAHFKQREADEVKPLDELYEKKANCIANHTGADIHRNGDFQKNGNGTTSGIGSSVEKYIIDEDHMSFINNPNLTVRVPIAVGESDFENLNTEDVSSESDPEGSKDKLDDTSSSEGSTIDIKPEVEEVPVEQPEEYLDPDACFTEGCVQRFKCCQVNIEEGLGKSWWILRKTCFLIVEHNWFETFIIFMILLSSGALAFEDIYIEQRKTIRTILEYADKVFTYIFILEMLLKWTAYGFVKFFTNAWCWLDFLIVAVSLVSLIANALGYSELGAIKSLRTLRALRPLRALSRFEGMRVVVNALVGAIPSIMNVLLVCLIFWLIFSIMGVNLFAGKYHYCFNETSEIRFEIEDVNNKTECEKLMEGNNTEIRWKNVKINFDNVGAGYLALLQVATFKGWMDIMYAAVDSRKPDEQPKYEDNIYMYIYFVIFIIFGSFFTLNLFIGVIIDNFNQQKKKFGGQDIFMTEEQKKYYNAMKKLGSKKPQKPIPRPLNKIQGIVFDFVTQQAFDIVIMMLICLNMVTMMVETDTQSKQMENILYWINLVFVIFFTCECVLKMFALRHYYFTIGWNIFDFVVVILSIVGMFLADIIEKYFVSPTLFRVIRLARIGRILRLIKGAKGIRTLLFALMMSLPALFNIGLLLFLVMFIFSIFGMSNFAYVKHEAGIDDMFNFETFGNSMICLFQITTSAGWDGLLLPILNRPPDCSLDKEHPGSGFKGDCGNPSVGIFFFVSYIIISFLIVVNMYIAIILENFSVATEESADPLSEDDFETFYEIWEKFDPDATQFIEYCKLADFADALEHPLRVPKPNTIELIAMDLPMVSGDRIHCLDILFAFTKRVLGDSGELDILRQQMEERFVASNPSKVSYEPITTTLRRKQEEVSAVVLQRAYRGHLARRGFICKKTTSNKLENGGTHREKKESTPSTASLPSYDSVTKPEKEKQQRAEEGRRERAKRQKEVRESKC", "test": "Nav channel electrophysiology (IonWorks Quattro)", "type": "cell-based"}}, "note": "Counter-ions that a name gives are not always drawn.", "data": [{"compound": "CCC(CO)NCCOc1c(C)cccc1Cl", "note": "(stereo not shown) [Compound 4, R,S-2-((2-(2-chloro-6-methylphenoxy)ethyl)amino)butan-1-ol]", "values": [{"measurement": "% of control +/- SEM", "setting": "NIE-115 cells; holding potential -60 mV", "result": "26 +/- 3%"}, {"measurement": "% of control +/- SEM", "setting": "NIE-115 cells; holding potential -90 mV", "result": "55 +/- 5%"}, {"measurement": "Rotarod TD50", "setting": "rats; ip, listed as 348014", "result": "< 50", "unit": "mg/kg"}, {"measurement": "Rotarod TD50", "setting": "rats; po", "result": "> 240", "unit": "mg/kg"}, {"measurement": "TOX TD50", "setting": "rats; report of 16-Aug-2004 (rats, po)", "result": "> 60", "unit": "mg/kg"}, {"measurement": "% of control specific binding", "setting": "ETA", "result": 130.9, "unit": "%"}, {"measurement": "% of control specific binding", "setting": "CB1", "result": 126.0, "unit": "%"}, {"measurement": "% of control specific binding", "setting": "NTS1 (NT1)", "result": 128.1, "unit": "%"}, {"measurement": "% of control specific binding", "setting": "BZD (peripheral)", "result": 75.1, "unit": "%"}, {"measurement": "% of control specific binding", "setting": "PAC1 (PACAP)", "result": 107.7, "unit": "%"}, {"measurement": "% of control specific binding", "setting": "M3", "result": 63.5, "unit": "%"}, {"measurement": "% of control specific binding", "setting": "CXCR2 (IL-8B)", "result": 112.2, "unit": "%"}, {"measurement": "% of control specific binding", "setting": "CCK2 (CCKB)", "result": 107.4, "unit": "%"}, {"measurement": "% of control specific binding", "setting": "CCR1", "result": 100.7, "unit": "%"}, {"measurement": "% of control specific binding", "setting": "V1a", "result": 99.8, "unit": "%"}, {"measurement": "% of control specific binding", "setting": "δ (DOP)", "result": 97.0, "unit": "%"}, {"measurement": "% of control specific binding", "setting": "GAL2", "result": 111.9, "unit": "%"}, {"measurement": "% of benzo[a]pyrene (+NADPH) control, + NADPH, Sample 1", "setting": "[1]; 0.10 mM", "result": 7.8, "unit": "%"}, {"measurement": "% of benzo[a]pyrene (+NADPH) control, + NADPH, Sample 2", "setting": "[1]; 0.10 mM", "result": 7.8, "unit": "%"}, {"measurement": "% of benzo[a]pyrene (+NADPH) control, − NADPH, Sample 1", "setting": "[1]; 0.10 mM", "result": 5.5, "unit": "%"}, {"measurement": "% of benzo[a]pyrene (+NADPH) control, − NADPH, Sample 2", "setting": "[1]; 0.10 mM", "result": 7.4, "unit": "%"}, {"measurement": "% of benzo[a]pyrene (+NADPH) control, + NADPH, Sample 1", "setting": "[1]; 0.20 mM", "result": 5.2, "unit": "%"}, {"measurement": "% of benzo[a]pyrene (+NADPH) control, + NADPH, Sample 2", "setting": "[1]; 0.20 mM", "result": 7.4, "unit": "%"}, {"measurement": "% of benzo[a]pyrene (+NADPH) control, − NADPH, Sample 1", "setting": "[1]; 0.20 mM", "result": 5.4, "unit": "%"}, {"measurement": "% of benzo[a]pyrene (+NADPH) control, − NADPH, Sample 2", "setting": "[1]; 0.20 mM", "result": 5.3, "unit": "%"}, {"measurement": "% of benzo[a]pyrene (+NADPH) control, + NADPH, Sample 1", "setting": "[1]; 0.50 mM", "result": 5.2, "unit": "%"}, {"measurement": "% of benzo[a]pyrene (+NADPH) control, + NADPH, Sample 2", "setting": "[1]; 0.50 mM", "result": 7, "unit": "%"}, {"measurement": "% of benzo[a]pyrene (+NADPH) control, − NADPH, Sample 1", "setting": "[1]; 0.50 mM", "result": 4.9, "unit": "%"}, {"measurement": "% of benzo[a]pyrene (+NADPH) control, − NADPH, Sample 2", "setting": "[1]; 0.50 mM", "result": 6.7, "unit": "%"}, {"measurement": "mutagenicity", "setting": "[1]; 0.1–0.5 mM, compared to DMSO solvent control", "result": "non-mutagenic"}]}, {"compound": "CCC(CO)NCCOc1c(C)cccc1Cl", "note": "(stereo not shown) [KM-408, R,S-2-((2-(2-chloro-6-methylphenoxy)ethyl)amino)butan-1-ol hydrochloride]", "values": [{"measurement": "ED50", "setting": "mice", "result": 13.3, "unit": "mg/kg"}, {"measurement": "IC50", "setting": "hNav1.7 sodium channel; 10 Hz", "result": 15.4, "unit": "µM"}, {"measurement": "IC50", "setting": "hNav1.7 sodium channel; Inactivated state", "result": "< 10", "unit": "µM"}, {"measurement": "IC50", "setting": "hNav1.7 sodium channel; Tonic block", "result": 52, "unit": "µM"}, {"measurement": "IC50", "setting": "hNav1.6 sodium channel; 10 Hz", "result": 20.5, "unit": "µM"}, {"measurement": "IC50", "setting": "hNav1.6 sodium channel; Inactivated state", "result": "< 10", "unit": "µM"}, {"measurement": "IC50", "setting": "hNav1.6 sodium channel; Tonic block", "result": 60.1, "unit": "µM"}]}]}
